Reference: patent US20240360174A1, “CELL-PENETRATING PEPTIDE SEQUENCES” (Ohio State Innovation Foundation, priority 2016, published 2024)
Square brackets hold non-standard residues; d marks the D form. Phe(4-F) = N[C@@H](Cc1ccc(F)cc1)C(=O)O; 2Nal = N[C@@H](Cc1ccc2ccccc2c1)C(=O)O; d2Nal = N[C@H](Cc1ccc2ccccc2c1)C(=O)O; Pip = O=C(O)[C@@H]1CCCCN1

tested on: HeLa cells; assay: Cellular uptake / cytosolic delivery efficiency of NF-labelled peptides by flow cytometry; type: cell-based; details: 2 h, 5 mM naphthofluorescein-labelled peptide, relative to CPP 1 (100%), mean ± S.D. of three independent experiments
Source text: Absolute cytosolic delivery efficiency is the ratio of cytosolic concentration of a CPP (or a CPP-cargo conjugate) over the concentration of the CPP (or the CPP-cargo conjugate) in the growth medium. Relative cytosolic delivery efficiency refers to the concentration of a CPP in the cytosol compared to the concentration of a control CPP in the cytosol. Quantification can be achieved by fluorescently labeling the CPP (e.g., with a FTIC dye) and measuring the fluorescence intensity using techniques well-known in the art.
In particular embodiments, relative cytosolic delivery efficiency is determined by comparing (i) the amount of a CPP of the invention internalized by a cell type (e.g., HeLa cells) to (ii) the amount of the control CPP internalized by the same cell type. To measure relative cytosolic delivery efficiency, the cell type may be incubated in the presence of a cell-penetrating peptide of the invention for a specified period of time (e.g., 30 minutes, 1 hour, 2 hours, etc.) after which the amount of the CPP internalized by the cell is quantified using methods known in the art, e.g., fluorescence microscopy. Separately, the same concentration of the control CPP is incubated in the presence of the cell type over the same period of time, and the amount of the control CPP internalized by the cell is quantified.
To determine cellular uptake efficiency of the CPPs disclosed herein, HeLa cells were cultured in 12-well plates (1.5×10^5 cells per well) overnight. The cells were incubated for 2 h with […] naphthofluorescein (NF)-labelled peptide in cellular media. At the end of incubation, the cells were washed with DPBS twice, detached from the plate with 0.25% trypsin, diluted into clear DMEM, pelleted at 250 g for 5 min, washed twice with DPBS, resuspended in DPBS, and analyzed on a BD FACS LSR II flow cytometer. For NF-labelled peptides, a 633-nm laser was used for excitation and the fluorescence emission was analyzed in the APC channel. Absolute cellular uptake efficiency was determined by comparing the concentration (via fluorescence intensity) of the CPP in the cytosol to the concentration in the extracellular medium.

Row | Substance | Relative Cytosolic Delivery Efficiency [%]
1 | cyclo(Pip-Nal-phe-Arg-arg-arg-glu) (cyclo([Pip][2Nal][dF]R[dR][dR][dE]); SMILES N=C(N)NCCC[C@@H]1NC(=O)[C@@H](Cc2ccccc2)NC(=O)[C@H](Cc2ccc3ccccc3c2)NC(=O)[C@@H]2CCCCN2C(=O)[C@@H](CCC(=O)O)NC(=O)[C@@H](CCCNC(=N)N)NC(=O)[C@@H](CCCNC(=N)N)NC1=O) [Pin1 21] | 27 ± 15
2 | cyclo(RFFFRRRQ) (cyclic) [SAR 48] | 167 ± 10
3 | cyclo(RFFRFRQ) (cyclic) [SAR 43] | 96 ± 31
4 | cyclo(RFFRRRQ) (cyclic) [SAR 31] | 63 ± 19
5 | cyclo(RFFRRRRQ) (cyclic) [SAR 46] | 104 ± 5
6 | cyclo(RFRRFRQ) (cyclic) [SAR 32] | 94 ± 9
7 | cyclo(RRFFFRQ) (cyclic) [SAR 37] | 172 ± 24
8 | cyclo(RRFFFRRQ) (cyclic) [SAR 49] | 112 ± 20
9 | cyclo(RRFFRRRQ) (cyclic) [SAR 47] | 115 ± 20
10 | cyclo(XXRRRRQ) (cyclo([Phe(4-F)][Phe(4-F)]RRRRQ); SMILES N=C(N)NCCC[C@@H]1NC(=O)[C@H](CCCNC(=N)N)NC(=O)[C@H](CCCNC(=N)N)NC(=O)[C@H](Cc2ccc(F)cc2)NC(=O)[C@H](Cc2ccc(F)cc2)NC(=O)[C@H](CCC(N)=O)NC(=O)[C@H](CCCNC(=N)N)NC1=O) [SAR 56] | 165 ± 22
11 | cyclo(fFfRrRQ) (cyclo([dF]F[dF]R[dR]RQ); SMILES N=C(N)NCCC[C@@H]1NC(=O)[C@@H](CCCNC(=N)N)NC(=O)[C@H](CCCNC(=N)N)NC(=O)[C@@H](Cc2ccccc2)NC(=O)[C@H](Cc2ccccc2)NC(=O)[C@@H](Cc2ccccc2)NC(=O)[C@H](CCC(N)=O)NC1=O) [SAR 59] | 185 ± 91
12 | cyclo(fFfrRrQ) (cyclo([dF]F[dF][dR]R[dR]Q); SMILES N=C(N)NCCC[C@@H]1NC(=O)[C@@H](CCCNC(=N)N)NC(=O)[C@@H](Cc2ccccc2)NC(=O)[C@H](Cc2ccccc2)NC(=O)[C@@H](Cc2ccccc2)NC(=O)[C@H](CCC(N)=O)NC(=O)[C@@H](CCCNC(=N)N)NC1=O) [SAR 58] | 280 ± 106
13 | cyclo(fFΦrRrQ) (cyclo([dF]F[d2Nal][dR]R[dR]Q); SMILES N=C(N)NCCC[C@@H]1NC(=O)[C@@H](CCCNC(=N)N)NC(=O)[C@@H](Cc2ccc3ccccc3c2)NC(=O)[C@H](Cc2ccccc2)NC(=O)[C@@H](Cc2ccccc2)NC(=O)[C@H](CCC(N)=O)NC(=O)[C@@H](CCCNC(=N)N)NC1=O) [SAR 61] | 330 ± 101
14 | cyclo(fΦfrRrQ) (cyclo([dF][2Nal][dF][dR]R[dR]Q); SMILES N=C(N)NCCC[C@@H]1NC(=O)[C@@H](CCCNC(=N)N)NC(=O)[C@@H](Cc2ccccc2)NC(=O)[C@H](Cc2ccc3ccccc3c2)NC(=O)[C@@H](Cc2ccccc2)NC(=O)[C@H](CCC(N)=O)NC(=O)[C@@H](CCCNC(=N)N)NC1=O) [SAR 62] | 357 ± 59
15 | cyclo(fΦrRrQ) (cyclo([dF][2Nal][dR]R[dR]Q); SMILES N=C(N)NCCC[C@@H]1NC(=O)[C@@H](CCCNC(=N)N)NC(=O)[C@H](Cc2ccc3ccccc3c2)NC(=O)[C@@H](Cc2ccccc2)NC(=O)[C@H](CCC(N)=O)NC(=O)[C@@H](CCCNC(=N)N)NC1=O) [SAR 65] | 172 ± 37
16 | cyclo(ΦFfrRrQ) (cyclo([d2Nal]F[dF][dR]R[dR]Q); SMILES N=C(N)NCCC[C@@H]1NC(=O)[C@@H](CCCNC(=N)N)NC(=O)[C@@H](Cc2ccccc2)NC(=O)[C@H](Cc2ccccc2)NC(=O)[C@@H](Cc2ccc3ccccc3c2)NC(=O)[C@H](CCC(N)=O)NC(=O)[C@@H](CCCNC(=N)N)NC1=O) [SAR 63] | 50 ± 9
